Here are results for 1 compound from patent US9856218B2, “Inhibitors of PRMT5 and methods of their use” (Ohio State Innovation Foundation, priority 2013, dated 2018).

One series has as its system MV411. The series is described as follows: MTS growth inhibition assay. Particulars: Homo sapiens, MV4-11, MV411, FLT3-ITD+, read-out: IC50 μM. It is filed as cell-based. Here is the method: (§1) Clonogenic assays were set up by plating 1×10^3 cell/mL in semi-solid methylcellulose medium (MethoCult, Stem Cell Technologies). Colonies were counted after 10-14 days using an inverted microscope. Growth inhibition assays were measured using a colorimetric MTS assay: 5×10^4 cells were plated in 100 μL final volume in a 96-well plate in the presence of different concentrations of C12 for 24, 48 and 72 hours at 37° C. Afterwards, 20 μL of the CellTiter 96W AQueous One Solution Reagent, which contains tetrazolium compound [3-(4,5-[…])-5-(3-carboxymethoxyphenyl)-2-(4-sulfophenyl)-2H-tetrazolium, inner salt; MTS] and an electron coupling reagent (phenazine ethosulfate; PES) (Promega, Madison Wis.), was added to each well. Within 1-4 hours of incubation at 37° C., the optical density at 490 and 690 nm was measured. Cell viability was calculated with respect to the control samples and reference background wavelength at 690 nm. At least three independent experiments were performed. Growth curve assays were done by counting live cells using Trypan blue exclusion and inverted microscope for >12 days after plating the cells in 1×10^5 concentrations.
(§2) PRMT5 inhibition by C12 was also effective in promoting apoptosis and differentiation.
(§3) Referring to FIGS. 34A and 34B, a colorimetric MTS assay was used to measure the proliferation rate of AML cell lines and primary blasts from patients after 48 hours incubation with a PRMT5 inhibitor compound (HLCL61 or C12). The dose-dependent decrease in absorbance indirectly correlates with the number of metabolically active live cells. The IC50 values represent the concentration of the compound at which 50% cell death was achieved.
On the technique in general: Tetrazolium dyes change colour on reduction, which living cells bring about.

The subject of another series is THP-1. Kind of series: MTS growth inhibition assay. It counts as cell-based. Particulars: Homo sapiens; THP-1, FLT3-WT, 48 h. The method, then: as §1, §2, §3
The test system of the next series is KG-1. Kind of series: MTS growth inhibition assay. It is filed as cell-based. Conditions: Homo sapiens; KG-1, P53 mutation, 48 h. The method, then:
as §1, §2, §3

The nature of series [1]: MTD study, four mice each dose. Particulars: mouse, in vivo, ip. It counts as in vivo. The method, then:
(§4) Controlled shRNA depletion was evaluated in a murine lymphoma model (Eμ-BRD2 (Chung, J., et al. (2013) J. Biological Chemistry 288, 35534-35547)) and human xenograft model of glioblastoma (Yan, F., et al (2014) Cancer Research In Press). Referring to FIG. 62A, controlled expression of a PRMT5 shRNA (solid line) but not control shRNA (dashed line) leads to 100% survival of mice engrafted primary DLBCL tumor cells. […] The maximum tolerated dose (MTD, single dose) was identified at 50 mg/kg (see Table 11 below). A sub-toxic dose (25 mg/kg) was used to treat FcMCL mice. Control mice developed peripheral blood and lymph node tumor burden starting day 20 post-engraftment.

A short description of series [2]: 24 hr Quick MTD test, one mouse for each dose. It counts as in vivo. The method, then: as §4
The test system of series [3] is AML cells (MV4-11 (FLT3-ITD) and Kasumi-1 (KITmut)). The series is described as follows: Differentiation marker CD11b, flow cytometry. It is filed as cell-based. Particulars: MV4-11 and Kasumi-1. Here is the method:
Cells (1×10^6) were washed and passed through a […] filter (BD), then re-suspended in 200 μL binding buffer with or without 5 μL AnnexinV (for apoptosis detection) or CD11b (for maturation detection) antibody (BD Biosciences, Billerica, Mass.). After 15 min. of incubation cells were washed with PBS, re-suspended in 500 μL flow buffer and analyzed on a FACSCalibur cytometer (BD Biosciences). For apoptosis detection, 5 μL propidium iodide (PI) (BD Biosciences) was added to cell before running flow cytometry. Sorting for GFP-positive cells was carried out on BD FACS Aria instrument after filtering and washing cells 2× with ice cold PBS supplemented with 2% calf bovine serum and re-suspending in FACS buffer.
as §2
The increase in CD11b expression in AML cells lines followed a dose-dependent manner.
(In general: Flow cytometry measures light scatter and fluorescence of single cells or particles in a stream.)

For series [4], the system named is Mantle cell lymphoma cell line Jeko. Kind of series: Induction of apoptosis, FITC-Annexin V-PI flow cytometry. It counts as cell-based.
Series [5] relates to AML cell lines and blasts. Kind of series: Colony forming assay. It counts as cell-based. Particulars: 100 nM, versus vehicle treated control cells. The method, then: as §1, §2
Colonies were counted 10-14 days after plating and each treatment was carried out in triplicates.

Series [6] deals with H4R3me2 binding to miR-29b regulatory site. The series is described as follows: ChIP assay at miR-29b regulatory site. It counts as cell-based. Here is the method:
Cross-linked chromatin was prepared by incubating cells in 1% formaldehyde for 10 min at room temperature and quenching with ice cold 1M Glycine. Cells were sonicated in 1% SDS lysis buffer and sheared chromatin was used to pull down protein/DNA complexes using antibodies against SP1, p65 (ChIP-grade Millipore), H4R3me2, H3R8me2 (Abcam) and RNA Pol II as positive control and normal IgG (Millipore) as negative control. Reverse cross-linked DNA was purified using QIAquick PCR Purification kit (Qiagen) and quantitative real-time PCR was carried out using SYBER green incorporation and primers designed for either FLT3 promoter region (sequenceF:R:) or miR-29b enhancer region (sequenceF:R:). DNA signals were calculated relative to input DNA amount and in comparison to expression values of negative control IgG.
The regulatory region of pri-miR-29b was later checked for possible docking of PRMT5 (indirect binding) or H3R8me2 and/or H4R3me2 (direct binding) using ChIP assay with and without PRMT5 inhibition. […] The efficiency of miR-29b in modulating SP1 was confirmed by miR-29b gain- and loss-of function assays in AML cells, and significant suppression of SP1 in miR-29b overexpressing cells was detected, while SP1 was re-expressed when cells were treated with miR-29b knockdown (FIGS. 49A and 49B). […]

Read-outs that look alike come from different tables or passages of the source.

Broadly, the IC50 is the concentration that gives 50% inhibition. The EC50 is the midpoint of the concentration-response curve. Lower therefore signals a more potent agent. `CCn1c2ccccc2c2cc(CNCc3ccccc3OC)ccc21` [HLCL-61]: the IC50 came to 17.9 µM with MV411 (24 h, 24 h); 14.1 µM in the series with MV411 (48 h, 48 h); 10.9 µM in the series with MV411 (72 h, 72 h); 16.7 µM in the series on THP-1; 7.21 µM with KG-1. Further, the “survival 24 hr after dosing” value in series [1] (5 mg/kg, 24 h) is given as “Alive 24 hr after”; in series [1] (50 mg/kg, 24 h), “moving. Alive 24 hr”. Also, the “condition within 1 hr after dosing (alive but slow moving)” value in series [1] (50 mg/kg) is reported as “Alive within 1 hr after”. The “mice lethargic and slow moving 24 hr after dosing” value in series [1] (50 mg/kg, 24 h) is on record as “after dosing, 1 out 4”. Further, the survival after dosing result in series [2] (IV-2.5 mg/kg, one mouse) is “Alive 24 hr after”; in series [2] (mouse, in vivo, ip, 50 mg/kg, 24 h), “Alive 24 hr after”; in series [2] (mouse, in vivo, ip, 200 mg/kg, 24 h) it was “Dead within 30 min”; in series [2] (mouse, in vivo, iv, 5 mg/kg, 24 h) it was “Alive 24 hr after”; in series [2] (mouse, in vivo, iv, 10 mg/kg, 24 h), “Alive 24 hr after”; in [2] (mouse, in vivo, iv, 20 mg/kg), “Dead instantly after”. Further, the “clinical signs after dosing” value in [2] (mouse, in vivo, ip, 100 mg/kg) is “still slow moving”. Besides, in series [2] (mouse, in vivo, iv, 10 mg/kg), the “clinical signs after dosing (slow moving)” value is recorded as “dosing but slow”. Moreover, the “early differentiation marker CD11b” value in [3] is given as “dose-dependent up-regulation”. The EC50 in series [4] (24 h) stood at 15 µM; in series [4] (48 h) it was 11 µM. The colonies formed entry in series [5] is “Significantly fewer colonies”. Also, the “binding of H4R3me2 to miR-29b regulatory site” value in [6] is “significant decrease in binding”.
